# Patent US20240156854A1, “METHYLCOBALAMIN OPHTHALMIC PREPARATION AND USE THEREOF” (EYE INSTITUTE OF SHANDONG FIRST MEDICAL UNIVERSITY, priority 2022, published 2024)
# Columns and labels:
# [1] = system: Mouse model of neurotrophic keratitis; assay: Confocal laser microscope imaging of corneal nerves (β-tubulin III staining) in mouse model of neurotrophic keratitis; format: in vivo, C57BL/6 mice; details: 14 d after the operation
# Experimental: (§1) (1) C57BL/6 mice, 6 to 8 weeks old, male, weighing 20 g to 25 g, were purchased from Beijing Vital River Laboratory Animal Technology Co., Ltd. Animal breeding was conducted in the Animal Laboratory of the Eye Institute of Shandong First Medical University. The temperature was controlled at 22±2° C., the humidity was controlled at 60±10%, a light and dark cycle was 12 h, and food and drink were given ad libitum.
# (2) Experimental grouping: 30 of 6- to 8-week-old C57BL/6 male mice (body weight 20 g to 25 g) were randomly divided into 5 groups, 6 in each group, respectively: • 1. A control group • 2. An eye drop group with the control methylcobalamin ophthalmic drop Comparative Example 1 • 3. An eye drop group with a recombinant human nerve growth factor • 4. An eye drop group with methylcobalamin+proanthocyanidin (Example 1) • 5. A subconjunctival implantation group with a methylcobalamin hydrogel (Example 2) […]
# Samples were taken 14 d after the operation. […] The cornea was washed 6 times with PBS, 10 min each time, the corneal epithelium was spread upward, and sealed with DAPI-containing anti-fluorescence quenching buffered glycerin, stored in the dark, and then imaged with a confocal laser microscope.
# [2] = system: Mouse model of neurotrophic keratitis; assay: Slit lamp photography of the eye in mouse model of neurotrophic keratitis; format: in vivo, C57BL/6 mice; details: day 7, slit lamp; eye drops 4 times a day or subconjunctival hydrogel implant (about 0.02 mg)
# Experimental: as §1
# (2) Experimental grouping: 30 of 6- to 8-week-old C57BL/6 male mice (body weight 20 g to 25 g) were randomly divided into 5 groups, 6 in each group, respectively: • 1. A control group • 2. An eye drop group with the control methylcobalamin ophthalmic drop Comparative Example 1 • 3. An eye drop group with a recombinant human nerve growth factor • 4. An eye drop group with methylcobalamin+proanthocyanidin (Example 1) • 5. A subconjunctival implantation group with a methylcobalamin hydrogel (Example 2)
# The mice were intraperitoneally anesthetized with a 0.6% pentobarbital sodium solution (1 ml/100 g), fixed on an operating table in a lateral position, and the bulbar conjunctiva was incised 90 degrees along the temporal corneoscleral limbus with Vannas scissors. The retroorbital venous plexus should not be damaged. […]
substance,measurement,setting,value
"recombinant human nerve growth factor: recombinant human nerve growth factor eye drops, comparator group",regeneration of corneal nerve endings,[1],regenerated
same,corneal neovascularization,[2],not obvious
